Laboratory results from PubChem BioAssay AID330 (DTP/NCI, 2004).
Several values for one entry are separate records, joined by “and”; a condition that tells them apart may be missing. Identical values can stand only once. Inconclusive results and toxic doses are left out. The calls were made as follows: active = survival T/C of 150% or more; inactive = T/C below 125% in these data.

System: P388 leukemia ip, CD2F1 mice, survival T/C
Experiment: NCI In Vivo Anticancer Drug Screen. Data for tumor model P388 Leukemia (intraperitoneal) in CD2F1 (CDF1) mice
Settings: endpoint: median survival time, higher = longer survival
In short: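 Mice carrying the transplanted tumor received test compound or vehicle. Survival was recorded in each group, and the value is the treated-group measurement divided by that of the vehicle-treated control group.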

[1] = dose: 12.5 mg/kg/injection, schedule: Q01DX005 (ip), vehicle: saline with Tween-80
[2] = dose: 25.0 mg/kg/injection, schedule: Q01DX005 (ip), vehicle: saline with Tween-80
[3] = dose: 50.0 mg/kg/injection, schedule: Q01DX009 (ip), vehicle: saline with Tween-80
[4] = dose: 50.0 mg/kg/injection, schedule: Q01DX009 (ip), vehicle: saline
[5] = dose: 100.0 mg/kg/injection, schedule: Q01DX009 (ip), vehicle: saline with Tween-80
[6] = dose: 100.0 mg/kg/injection, schedule: Q01DX009 (ip), vehicle: saline
[7] = dose: 200.0 mg/kg/injection, schedule: Q01DX009 (ip), vehicle: saline with Tween-80
[8] = dose: 200.0 mg/kg/injection, schedule: Q01DX009 (ip), vehicle: saline
[9] = dose: 50.0 mg/kg/injection, schedule: Q01DX005 (ip), vehicle: saline with Tween-80
[10] = dose: 100.0 mg/kg/injection, schedule: Q01DX005 (ip), vehicle: saline with Tween-80
[11] = dose: 200.0 mg/kg/injection, schedule: Q01DX005 (ip), vehicle: saline with Tween-80
[12] = dose: 60.0 mg/kg/injection, schedule: Q01DX005 (ip), vehicle: saline with Tween-80
[13] = dose: 120.0 mg/kg/injection, schedule: Q01DX005 (ip), vehicle: saline with Tween-80
[14] = dose: 240.0 mg/kg/injection, schedule: Q01DX005 (ip), vehicle: saline with Tween-80
[15] = dose: 25.0 mg/kg/injection, schedule: Q01DX009 (ip), vehicle: saline with Tween-80
[16] = dose: 12.5 mg/kg/injection, schedule: Q01DX009 (ip), vehicle: saline with Tween-80

Measured: T/C

CN1CCC23c4c5ccc(O)c4OC2C(=NN=C2CCC4(O)C6Cc7ccc(O)c8c7C4(CCN6C)C2O8)CCC3(O)C1C5 (configuration not stated)
inactive: [1] 96 % of control | [2] 90 % of control

CSc1ncnc2sc(NN)nc12
inactive: dose: 100.0 mg/kg/injection, schedule: Q01DX001 (ip), vehicle: distilled water + alcohol 94 % of control | dose: 200.0 mg/kg/injection, schedule: Q01DX001 (ip), vehicle: distilled water + alcohol 94 % of control | dose: 400.0 mg/kg/injection, schedule: Q01DX001 (ip), vehicle: distilled water + alcohol 102 % of control

CN1CCC(O)(O)C(Cl)(Cl)C1
inactive: dose: 50.0 mg/kg/injection, schedule: Q01DX005 (ip), vehicle: suspension in saline 104 % of control | dose: 100.0 mg/kg/injection, schedule: Q01DX005 (ip), vehicle: suspension in saline 99 % of control | dose: 200.0 mg/kg/injection, schedule: Q01DX005 (ip), vehicle: suspension in saline 95 % of control

Cc1ccc(Cl)cc1NC(=O)N(C)CCO
inactive: dose: 60.0 mg/kg/injection, schedule: Q01DX005 (ip), vehicle: Klucel (hydroxypropylcellulose) (HPC) 103 % of control | dose: 120.0 mg/kg/injection, schedule: Q01DX005 (ip), vehicle: Klucel (hydroxypropylcellulose) (HPC) 103 % of control | dose: 240.0 mg/kg/injection, schedule: Q01DX005 (ip), vehicle: Klucel (hydroxypropylcellulose) (HPC) 94 % of control

N#C/C(=C\c1ccc(Cl)cc1)c1ccccc1
inactive: [3] 96 % of control | [4] 100 % of control | [5] 95 % of control | [6] 98 % of control and 96 % of control | [7] 98 % of control | [8] 99 % of control and 92 % of control | dose: 400.0 mg/kg/injection, schedule: Q01DX009 (ip), vehicle: saline with Tween-80 100 % of control | dose: 400.0 mg/kg/injection, schedule: Q01DX009 (ip), vehicle: saline 90 % of control and 91 % of control

CCOC(=O)c1ccc(N)[n+](C2OC(COC(=O)c3ccccc3)C(OC(=O)c3ccccc3)C2OC(=O)c2ccccc2)c1 (configuration not stated)
inactive: [9] 92 % of control | [10] 107 % of control | [11] 112 % of control

CC1C2c3ccccc3C(c3ccccc32)C1CO (configuration not stated)
inactive: [9] 92 % of control | [10] 91 % of control | [11] 90 % of control

CC1(Cc2ccccc2)N=C1c1ccccc1 (configuration not stated)
inactive: dose: 100.0 mg/kg/injection, schedule: Q04DX002 (ip), vehicle: saline with Tween-80 106 % of control | dose: 200.0 mg/kg/injection, schedule: Q04DX002 (ip), vehicle: saline with Tween-80 103 % of control

CCn1c2ccccc2c2cc(NS(=O)(=O)c3ccccc3)ccc21
inactive: dose: 50.0 mg/kg/injection, schedule: Q01DX009 (ip), vehicle: Klucel (hydroxypropylcellulose) (HPC) 103 % of control | dose: 100.0 mg/kg/injection, schedule: Q01DX009 (ip), vehicle: Klucel (hydroxypropylcellulose) (HPC) 103 % of control | dose: 200.0 mg/kg/injection, schedule: Q01DX009 (ip), vehicle: Klucel (hydroxypropylcellulose) (HPC) 100 % of control

Nc1nc2c(C(=O)NCc3cccs3)nnn2c2cccc(Cl)c12
inactive: [12] 96 % of control | [13] 92 % of control | [14] 95 % of control

CC1(C)SC2C(NC(=O)C(N)c3ccc(O)cc3)C(=O)N2C1C(=O)O (configuration not stated)
inactive: [4] 113 % of control | [6] 116 % of control | [8] 113 % of control

C/C=C(/C)C(=O)OC1CC(C)=CC(OC(=O)/C(C)=C\C)[C@]2(C)C1[C@](O)(C(C)C)C[C@H]2OC(C)=O (some centres not stated)
inactive: dose: 5.0 mg/kg/injection, schedule: Q01DX005 (ip), vehicle: Klucel + Tween-80 95 % of control | dose: 10.0 mg/kg/injection, schedule: Q01DX005 (ip), vehicle: Klucel + Tween-80 97 % of control | dose: 20.0 mg/kg/injection, schedule: Q01DX005 (ip), vehicle: Klucel + Tween-80 100 % of control | dose: 40.0 mg/kg/injection, schedule: Q01DX005 (ip), vehicle: Klucel + Tween-80 91 % of control

BrCC[Se]c1ccccc1
inactive: [15] 103 % of control | [3] 112 % of control and 117 % of control | [5] 120 % of control and 124 % of control

COc1cc(OC)c(Br)cc1C
inactive: [16] 100 % of control | [15] 91 % of control | [3] 91 % of control | dose: 100.0 mg/kg/injection, schedule: Q04DX003 (ip), vehicle: saline with Tween-80 104 % of control | dose: 200.0 mg/kg/injection, schedule: Q04DX003 (ip), vehicle: saline with Tween-80 104 % of control | dose: 400.0 mg/kg/injection, schedule: Q04DX003 (ip), vehicle: saline with Tween-80 104 % of control

N=C(N)SCc1nc(-c2ccc(Cl)cc2)no1
inactive: dose: 6.25 mg/kg/injection, schedule: Q01DX009 (ip), vehicle: saline with Tween-80 109 % of control | dose: 6.25 mg/kg/injection, schedule: Q01DX009 (ip), vehicle: saline 98 % of control | [16] 106 % of control | dose: 12.5 mg/kg/injection, schedule: Q01DX009 (ip), vehicle: saline 104 % of control and 106 % of control | [15] 106 % of control | dose: 25.0 mg/kg/injection, schedule: Q01DX009 (ip), vehicle: saline 108 % of control and 111 % of control | [3] 113 % of control | [4] 110 % of control and 121 % of control and 123 % of control

CCSc1nc(Cl)cc(Sc2nc(N)nc3nc[nH]c23)n1
inactive: dose: 12.0 mg/kg/injection, schedule: Q01DX009 (ip), vehicle: saline with Tween-80 90 % of control | dose: 18.0 mg/kg/injection, schedule: Q01DX009 (ip), vehicle: saline with Tween-80 90 % of control | dose: 26.0 mg/kg/injection, schedule: Q01DX009 (ip), vehicle: saline with Tween-80 100 % of control | dose: 40.0 mg/kg/injection, schedule: Q01DX009 (ip), vehicle: saline with Tween-80 104 % of control | dose: 60.0 mg/kg/injection, schedule: Q01DX009 (ip), vehicle: saline with Tween-80 100 % of control | dose: 88.0 mg/kg/injection, schedule: Q01DX009 (ip), vehicle: saline with Tween-80 90 % of control | dose: 132.0 mg/kg/injection, schedule: Q01DX009 (ip), vehicle: saline with Tween-80 86 % of control

CC(C)=CC(=O)Sc1ccccc1
inactive: [1] 101 % of control | [2] 94 % of control | [9] 102 % of control and 104 % of control

O=C(CCCl)Nc1ccccc1C(=O)CCc1cn(C(=O)CCCl)c2ccccc12
inactive: [12] 107 % of control | [13] 102 % of control | [14] 96 % of control

C[Si](C)(C)c1c[nH]c(=O)[nH]c1=O
inactive: [3] 102 % of control | [5] 98 % of control and 96 % of control | [7] 102 % of control

COc1c(OC)c(OC)c(-c2cc(=O)c3c(OC)cccc3o2)c(OC)c1OC
inactive: dose: 25.0 mg/kg/injection, schedule: Q01DX005 (ip), vehicle: distilled water + Tween-80 + alcohol 102 % of control | dose: 50.0 mg/kg/injection, schedule: Q01DX005 (ip), vehicle: distilled water + Tween-80 + alcohol 96 % of control | dose: 100.0 mg/kg/injection, schedule: Q01DX005 (ip), vehicle: distilled water + Tween-80 + alcohol 95 % of control

CCOC(=Nc1ccc(C#N)cc1)SC(c1ccccc1)(c1ccccc1)c1ccccc1
inactive: [9] 104 % of control | [10] 96 % of control | [11] 86 % of control

CC(C)(C)[Si]1(C(C)(C)C)N([Si](C)(C)C)N1[Si](C)(C)C (configuration not stated)
inactive: dose: 60.0 mg/kg/injection, schedule: Q01DX005 (ip), vehicle: saline 106 % of control | dose: 120.0 mg/kg/injection, schedule: Q01DX005 (ip), vehicle: saline 100 % of control | dose: 240.0 mg/kg/injection, schedule: Q01DX005 (ip), vehicle: saline 105 % of control
